In patent US5321035A, “Piperidine derivatives and process for preparation thereof” (Shionogi & Co., Ltd., priority 1992, dated 1994):
pIC50: −log10 of the molar value.

Experiments:
[1] = system: hippocampus CAI pyramidal cells; experiment: Inhibitory effect against delayed necrosis of hippocampus pyramidal cells after cerebral ischemia (bilateral common carotid artery ligation); type: in vivo, Mongolian gerbil; details: for injury (%) in pyramidal cell layer: 30 min before 5 min occlusion, 4th day; for inhibition (%) of injury: vs control
Protocol: Inhibitory effect against the delayed necrosis of hippocampus CAI pyramidal cells was determined.
Compound (a) and compound (b) were again used in this experiment. Three to eight male mice (Mongolian gerbil, 11 to 12-week-old, Seiwa Jikken-dobutsuKenkyusyo) were used for one group.
Each animal was intraperitoneally administered a solution of the test compound (a) or (b) dissolved in distilled water, or only distilled water (for control) at 0.2 ml/100 g weight of the animal. Thirty minutes later, under the halothane anesthesia, bilateral common carotid artery was separated from surrounding tissues and ligated for a period of 5 min with Sugita's artery Klemme. Anesthesia was stopped at the time of artery occlusion. On the 4th day after the operation, each animal was anesthetized with pentobarbital Na (45 mg/kg), and brain was perfused with 4% paraformaldehyde solution and removed. From the brain was prepared a piece of cerebral preparation containing hippocampus. It was placed in Carnoy's fixative overnight for fixation and embedded in paraffin, from which sliced coronal preparations of 10 μm thick were prepared. Each cerebral preparation was stained with hematoxylin-eosin and the rate of injury (%) in pyramidal cell layer extending from paramedian to CA4 was observed using two-dimensional image analyzer (Cosmozon IS, Nicon).

[2] = system: [3H]5-HT uptake by synaptosomes; experiment: {3H} Serotonin (5-HT) Uptake Inhibition Test in brain synaptosomes; type: biochemical, rat (male Slc: Wistar strain); details: for pIC50: 5 nM [3H]5-HT, 5 min at 37° C, rat brain synaptosomes
Excerpt: (1) Evaluation of Effects on Neurotransmittal Systems {^3 H} Serotonin (5-HT) Uptake Inhibition Test
Compound (a): a compound of the present invention
Compound (b): 1-[3-{4-(3,4-dichlorophenyl)-piperidin-1-yl}propylcarbamoyl]-2-oxopyrrolidin (Japanese Patent Publication (KOKAI) No.131155/1989).
Male Slc: Wistar strain rats (12-week-old, Japan SLC).
Rats were killed by decapitation and a whole brain except for cerebellum is isolated immediately. The isolated tissue was homogenized in 20 volume of ice-cold 0.32 M sucrose solution by Potter-type homogenizer and centrifuged at 1,000× g for 10 min. The supernatant is centrifuged at 40,000× g for 20 min. The resultant pellet is resuspended in 20 volume of Krebs-Henseleit buffer containing 1 mM ascorbate, 0.17 mM EDTA and 0.08 mM pargyline by Polytron and centrifuged at 40,000× g for 10 min, which procedure was repeated two more times. The finally obtained pellet was resuspended in 20 volume of ice-cold Krebs-Henseleit buffer using Polytron. The resultant suspension was diluted to 1/10 with the same buffer to give a synaptosome sample.
A mixture of 5 nM [^3 H]5-HT (10 μl), synaptosome sample (480 μl ) and a solution (10 μl ) containing a test compound at a predetermined concentration was incubated for 5 min at 37° C. The reaction was stopped by diluting the mixture with ice-cold Krebs-Henseleit buffer (2.5 ml) and filtering with suction on Whatman GF/C paper. The filter paper was washed three times with ice-cold Krebs-Henseleit buffer (2.5 ml each) and allowed to stand for about 18 hr in Cleasol-1 solution (5 ml). The radioactivity was then measured by means of a liquid scintillation counter. A control experiment was carried out in the same manner as the above using 5 nM [^3 H]5-HT (10 μl ), synaptosome sample (480 μl ) and a solvent (10 μl ) used for dissolving a test compound to obtain blank values of radioactivity. […]

[3] = system: 7-alkoxycumarin-O-dialkylase; experiment: Enzyme Induction Test (liver microsomal 7-alkoxycumarin-O-dialkylase activities after repeated dosing); type: in vivo, mouse (male, DS)
Protocol: Male mice (DS, 5-6 week-old) received intraperitoneally 100 mg/kg of the compound (a) of the present invention or the compound (c) (1-[3-}4-(3,4,-dichlorophenyl)-1,2,5,6-tetrahydropiperidin-1-yl}propylcarbamoyl]-2-oxopyrrolidine) suspended in 5% gum arabic once a day for three days. After 24 hrs from the final administration, the liver was removed from the animal, and liver microsome was prepared by means of centrifugal fractionation. Additional liver microsomes were prepared in the same manner as above by intraperitoneally administering a typical enzyme inducer, phenobarbital (dissolved in saline) or β-naphthoflavone (suspended in sesame oil), to mice. Enzymatic activities of the above liver microsomes on drug metabolism were evaluated by determining their 7-alkoxycumarin-O-dialkylase activities.

[4] = mouse, in vivo, ip, 100 mg/kg, 1440 min
[5] = i.p., compounds (a), (c): 100 mg/kg once a day for three days, control = 1.00
[6] = i.p., compounds (a), (c): 100 mg/kg once a day for three days, liver microsomes
[7] = three days, compared with the control

Compound	injury (%) in pyramidal cell layer ([1]; 12.5 mg/kg i.p.)	inhibition (%) of injury ([1]; 12.5 mg/kg i.p.)	injury (%) in pyramidal cell layer ([1]; 25.0 mg/kg i.p.)	inhibition (%) of injury ([1]; 25.0 mg/kg i.p.)	injury (%) in pyramidal cell layer ([1]; 50.0 mg/kg i.p.)	inhibition (%) of injury ([1]; 50.0 mg/kg i.p.)	pIC50 [2]	deethylation activity (7-alkoxycumarin-O-dialkylase) ([3]; mouse, in vivo, ip, 100 mg/kg)	demethylation activity (7-alkoxycumarin-O-dialkylase) ([3]; mouse, in vivo, ip, 100 mg/kg)	depropylation activity (7-alkoxycumarin-O-dialkylase) ([3]; mouse, in vivo, ip, 100 mg/kg)	deethylation activity, ratio to control (in parentheses) [3, 4]	demethylation activity, ratio to control (in parentheses) [3, 4]	depropylation activity, ratio to control (in parentheses) [3, 4]	deethylation activity, ratio to control (in parentheses) [3, 5]	demethylation activity, ratio to control (in parentheses) [3, 5]	depropylation activity, ratio to control (in parentheses) [3, 5]	deethylation activity (7-alkoxycumarin-O-dialkylase) [3, 6]	demethylation activity (7-alkoxycumarin-O-dialkylase) [3, 6]	depropylation activity (7-alkoxycumarin-O-dialkylase) [3, 6]	also measured
1-[3-{4-(3,4-dichlorophenyl)-piperidin-1-yl}propylcarbamoyl]-2-oxopyrrolidin [Compound (b)]	44.0 ± 3.2%	+2.8%	28.1 ± 8.3%	+38.0%	30.7 ± 3.9%	+32.1%	4.64													
O=C1CCCN1C(=O)NCCCN1CCC(c2ccc(Cl)c(Cl)c2)CC1 [Compound (a), 1-[3-{4-(3,4-Dichlorophenyl)piperidin-1-yl}-propylcarbamoyl]-2-oxopyrrolidine]	45.9 ± 2.1%	+8.0%	33.6 ± 5.3%	+32.7%	0%	+100%	6.89	2.59 ± 0.27 nmol/min/mg of microsome protein	2.79 ± 0.33 nmol/min/mg of microsome protein	1.08 ± 0.12 nmol/min/mg of microsome protein	0.98	1.08	0.89							enzyme induction (in words) ([3]; mouse, in vivo): no enzyme induction was observed; inhibition of delayed necrosis of hippocampus CAI pyramidal cells (in words) ([1]; 50 mg/kg i.p.): completely inhibited; inhibition of delayed necrosis of hippocampus CAI pyramidal cells (in words) ([1]; 12.5 and 25 mg/kg i.p.): significantly inhibited; serotonin uptake inhibitory activity (in words) ([2]; compared to compound (b)): much more potent serotonin uptake inhibitory activity
O=C1CCCN1C(=O)NCCCN1CC=C(c2ccc(Cl)c(Cl)c2)CC1 [Compound (c)]														1.99	1.61	2.20	2.29 ± 0.18 nmol/min/mg of microsome protein	1.83 ± 0.19 nmol/min/mg of microsome protein	0.99 ± 0.55 nmol/min/mg of microsome protein	enzyme induction (in words) ([3]; mouse liver, three days): carcinogenic enzyme induction of β-naphthoflavone type (3-methylcholanthrene type); increase in deethylation and depropylation activities [3, 7]: 1.99-2.20 times; increase in demethylation activity [3, 7]: 1.61 times
CCC1(c2ccccc2)C(=O)NC(=O)NC1=O [phenobalbital, phenobarbital]														2.53	2.29	2.20	2.63 ± 0.18 nmol/min/mg of microsome protein	2.18 ± 0.13 nmol/min/mg of microsome protein	1.06 ± 0.06 nmol/min/mg of microsome protein	
O=c1cc(-c2ccccc2)oc2ccc3ccccc3c12 [β-naphtoflavone, β-naphthoflavone]								5.26 ± 0.28 nmol/min/mg of microsome protein	1.94 ± 0.08 nmol/min/mg of microsome protein	2.97 ± 0.20 nmol/min/mg of microsome protein	5.06	2.04	6.19							
